Experimental data: paper PMC11650737, “Developing MYC Degraders Bearing the Von Hippel–Lindau Ligand to Target the “Undruggable” MYC” (ACS Pharmacology & Translational Science, 2024)
Entries after “also recorded” stand apart in the source; their conditions may differ.

Columns and labels:
[1] = test system: various cancer cell lines; experiment: Cell viability (MTT) assay, cell line not singled out; type: cell-based; settings: Homo sapiens, 72 h, summary over cancer cell lines (breast and prostate), read-out: IC50 (antiproliferative activity)
Procedure: (§1) The antiproliferative activity of the synthesized compounds was tested in cell viability assays optimally set up for various cancer cell lines (results are depicted in Table 2, n = 3, average IC50 (μM) ± SD).
Cells were plated at a density of 5 × 10^3 cells per well on 96-well plates. After 24 h of incubation (37 °C, 5% CO2), the cell medium was removed, and compounds were added at selected concentrations (0.1–100 μM), followed by incubation for 72 h. Control cells were treated with 0.4% DMSO medium to match the conditions in the wells where drugs were added. After 72 h, the medium was removed, and the 3-(4,5-dimethylthiazol-2-yl)-2,5-diphenyltetrazolium bromide (MTT) solution (0.3 mg/mL in PBS) was added to cells for 3 h under no light conditions. The MTT solution was removed, and the formazan crystals were dissolved in 100 μL of DMSO. The optical density was measured at 570 nm with a reference wavelength of 690 nm using an absorbance microplate reader (SpectraMax 190, Molecular Devices, Sunnyvale, CA, USA). The half-maximal inhibitory concentration (IC50) was calculated based on a four-parameter logistic equation, generating a cell viability curve, using GraphPad Prism 6.01 (GraphPad Software, Inc.). […] The resulting absorbance values were used instead of IC50 calculation. […]

MYC:MAX complex = experiment: In vitro MYC-MAX binding assay (GST pull-down); type: biochemical; settings: compound 150 μM
Procedure: To assess whether the new degraders affect direct interaction of MYC with MAX, we employed a pull-down approach using recombinant proteins that correspond to the bHLHZ regions of MYC and MAX. GST-MYC, bound to glutathione sepharose beads, was incubated with the pyrazole compounds, followed by incubation with His-MAX. Finally, the complex of GST-MYC/HisMAX was eluted by the addition of excess glutathione, while the amount of the eluted complex was assessed by western blotting using anti-MAX antibodies (Figure 5).
Figure 5 Inhibition of the formation of the MYC:MAX complex by the pyrazole compounds. The indicated compounds (150 μM), or the solvent alone (DMSO, used as a control), were incubated with GST-MYC containing glutathione beads for 10 min at […], followed by incubation with His-MAX. […] The complex of GST-MYC:His-MAX was eluted by incubation of the beads with free glutathione. The amount of the eluted complex was analyzed by western blotting (presented in the inset), using anti-MAX antibodies, while the protein bands were quantified with the ImageJ software. The intensity of the bands is presented in the bar graph. […] Statistics were based on the unpaired two-tailed student’s t-test. Data are shown as mean ± SEM.
MYC–MAX complex formation assays were performed using recombinantly produced GST-MYC and His-MAX proteins, following the glutathione GST pull-down principle (Lentzaris et al., in preparation). In this assay, recombinant GST-MYC bound to glutathione beads was preincubated with the indicated compound or vehicle […]. As a negative control, empty beads, i.e., not loaded with GST-MYC, were used. The formed complex was eluted with glutathione, while the amount of bound MAX (indicating the amount of the generated complex) was assessed by Western blotting using anti-MAX antibodies (Abcam) and quantified based on the image J free software. All assays were carried out at least three independent times.

PC3 cells = experiment: Cell viability (MTT) assay, PC3; type: cell-based, human; settings: Homo sapiens, PC-3, 72 h, read-out: IC50 (antiproliferative effect)
Procedure: as §1
(§2) Cells were plated at a density of 5 × 10^3 cells per well on 96-well plates. After 24 h of incubation (37 °C, 5% CO2), the cell medium was removed, and compounds were added at selected concentrations (0.1–100 μM), followed by incubation for 72 h. Control cells were treated with 0.4% DMSO medium to match the conditions in the wells where drugs were added. After 72 h, the medium was removed, and the 3-(4,5-dimethylthiazol-2-yl)-2,5-diphenyltetrazolium bromide (MTT) solution (0.3 mg/mL in PBS) was added to cells for 3 h under no light conditions. The MTT solution was removed, and the formazan crystals were dissolved in 100 μL of DMSO. The optical density was measured at 570 nm with a reference wavelength of 690 nm using an absorbance microplate reader (SpectraMax 190, Molecular Devices, Sunnyvale, CA, USA). The half-maximal inhibitory concentration (IC50) was calculated based on a four-parameter logistic equation, generating a cell viability curve, using GraphPad Prism 6.01 (GraphPad Software, Inc.). Two concentrations of an established drug, Docetaxel (100 nM and 1 nM), were used in each experiment as a positive control. The resulting absorbance values were used instead of IC50 calculation. Each point was the result of three independent experiments performed in triplicate.

SKBR3 cells = experiment: Cell viability (MTT) assay, SKBR3; type: cell-based, human; settings: Homo sapiens, SK-BR-3, 72 h, read-out: IC50 (antiproliferative effect)
Procedure: as §1, §2

c-MYC = target: T1, c-MYC (Homo sapiens, UniProt P01106); experiment: MYC degradation in PC3 cells, Western blot; type: cell-based
T1 construct: endogenous in cells; host or cells: PC3
Procedure: The ability of novel compounds to induce MYC degradation in the PC3 cell line was evaluated via a Western blot-based assay. […] A PROTAC that effectively degrades bromodomain and extra-terminal (BET) family proteins, with indirect action on MYC levels, BETd-260, was also included in these experiments as a positive control. BETd-260 was tested at a lower concentration (1 μΜ) due to its high potency.[26]
PC3 cells were used for the determination of MYC levels after treatment with the PROTACs under study. Cells (at a density of 250 000 per well) were seeded in 6-well plates for 24 h until 60% confluence. During the 24-h incubation period, cells were treated with the tested compounds (10 μΜ) and BETd-260 (1 μΜ) that was used as a positive control. For rescue experiments, cells were pretreated with the inhibitor MG-132 for 2 h, and then, the medium was removed, followed by the addition of the selected compound. After the 24-h incubation period, a cell lysis protocol was performed. The medium was removed, and the cells were rinsed with cold PBS. Lysis was induced using RIPA lysis buffer (50 mM Tris-HCl at pH 7.5, 150 mM NaCl, 5 mM Na2EDTA, 1 mM EGTA, 0.1% SDS, 1% NP-40, 0.5% sodium deoxycholate, 8 mM sodium fluoride, and 1 mM sodium orthovanadate) and protease inhibitor cocktail (Roche, UK). Total protein concentration in lysate samples was determined via performance of the Bradford assay in bovine serum albumin (BSA). Standard and unknown samples were preformulated in Coomassie blue G-250 assay reagent (Thermo Fisher Scientific, MA, USA), followed by a readout at 595 nm. Separation of the protein isolated from PC3 lysates, respectively (10 μg), with NuPAGE sample reducing agent and NuPAGE LDS sample buffer (Invitrogen, UK), was achieved via SDS-PAGE electrophoresis at 110 V for 2 h, prior to overnight transfer to the polyvinylidene difluoride (PVDF) membrane. The membranes were then blocked in 5% nonfat dry milk in Tris-buffered saline with 0.1% Tween-20 (TBST-T) for 1 h at room temperature.
Detection of MYC in PC3 cells was accomplished via immunoblot of the POI with the indicated monoclonal antibody (Cell Signaling Technology, MA, USA, catalog number #5605) at 1:1000 in TBST at […] overnight. The secondary anti-rabbit peroxidase-conjugate antibody (Cell Signaling Technology, MA, USA, catalog number #7074) was further added at 1:2000 dilution, followed by 1-h incubation at room temperature. Chemiluminescent visualization of the MYC protein bands was performed after the addition of Immobilon Crescendo Western HRP substrate (Sigma-Aldrich, Munich, Germany). For normalization of MYC concentration, GAPDH was labeled using the specific rabbit monoclonal antibody (Cell Signaling Technology, MA, USA, catalog number #5174) at 1:20000 in 5% nonfat dry milk. Protein bands were quantified with the ImageJ software.

T1 sequence (P01106 whole entry): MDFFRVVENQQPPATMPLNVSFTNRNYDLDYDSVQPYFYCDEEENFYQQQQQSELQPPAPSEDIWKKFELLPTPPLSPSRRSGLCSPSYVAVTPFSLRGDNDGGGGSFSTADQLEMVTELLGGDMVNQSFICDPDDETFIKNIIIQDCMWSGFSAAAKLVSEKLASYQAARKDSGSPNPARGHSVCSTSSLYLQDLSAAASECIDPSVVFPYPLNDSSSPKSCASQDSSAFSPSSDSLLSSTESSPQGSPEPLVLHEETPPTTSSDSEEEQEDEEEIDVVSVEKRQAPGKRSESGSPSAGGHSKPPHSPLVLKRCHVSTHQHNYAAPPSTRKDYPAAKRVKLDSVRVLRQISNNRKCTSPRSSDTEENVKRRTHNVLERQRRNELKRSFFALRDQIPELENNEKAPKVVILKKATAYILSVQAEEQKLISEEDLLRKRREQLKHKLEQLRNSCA

With Cc1ncsc1-c1ccc(CNC(=O)[C@@H]2C[C@@H](O)CN2C(=O)[C@@H](NC(=O)CCC(=O)NCCCOc2ccc(-c3cc(C(F)(F)F)nn3C)c(O)c2-c2cc(C(F)(F)F)cc(C(F)(F)F)c2)C(C)(C)C)cc1 [CSI86] the IC50 [1] was 13 to 18 µM, the “inhibition of MYC:MAX complex formation (binding of His-MAX to GST-MYC)” value (MYC:MAX complex) was “no effect on MYC/MAX dimerization” and the IC50 (PC3 cells) was 18 ± 7 µM. The IC50 (SKBR3 cells) was 15 ± 4 µM.
Cc1ncsc1-c1ccc(CNC(=O)[C@@H]2C[C@@H](O)CN2C(=O)[C@@H](NC(=O)CCCC(=O)NCCCOc2ccc(-c3cc(C(F)(F)F)nn3C)c(O)c2-c2cc(C(F)(F)F)cc(C(F)(F)F)c2)C(C)(C)C)cc1 [CSI107] was tested, and the “dose dependence of MYC degradation” value (c-MYC; 1–20 μΜ, 24 h) was “dose-dependent manner”, the “c-MYC degradation after short treatment” value (c-MYC; 10 μΜ, 3 h) was “effectively mediated c-MYC degradation” and the “MYC degradation (MYC levels by Western blot)” value (c-MYC; 10 μΜ, 24 h) was “significantly active”. For the same compound, the “MYC levels after pretreatment with proteasome inhibitor MG-132” value (c-MYC; MG-132 10 μΜ 2 h, then compound 10 μΜ 24 h, versus control group) was “no reduction in MYC levels”, the IC50 [1] was 13 to 18 µM and the “inhibition of MYC:MAX complex formation (binding of His-MAX to GST-MYC)” value (MYC:MAX complex) was “inhibited the binding of HisMAX to MYC; also recorded: inhibits dimerization”. It also gave an IC50 (PC3 cells) of 13 ± 7 µM and an IC50 (SKBR3 cells) of 14 ± 2 µM.
Cc1ncsc1-c1ccc(CNC(=O)[C@@H]2C[C@@H](O)CN2C(=O)[C@@H](NC(=O)COCCOCC(=O)NCCCOc2ccc(-c3cc(C(F)(F)F)nn3C)c(O)c2-c2cc(C(F)(F)F)cc(C(F)(F)F)c2)C(C)(C)C)cc1 [CSI135] was tested, and the “MYC degradation (MYC levels by Western blot)” value (c-MYC; 10 μΜ, 24 h) was “No particular effect” and the IC50 (PC3 cells) was 25 ± 2 µM.
